Common to all, as to assay: Serine threonine kinase inhibitory activity ([γ-33P]ATP)
Holding throughout (format): biochemical

The target of one assay is GSK-3β (Homo sapiens, UniProt P49841). Conditions: [γ-33P]ATP kinase panel; read-out: IC50 values against GSK-3β. Here is the method: Inhibitory action on various purified proteins of serine, threonine kinases (p38α, JNK1, IKKβ, ASK1, TAK1, MEKK1, PKCθ, GSK-3β, PLK1, TTK, Aurora A, MEK1, MEK5, B-RAF, ERK1) was examined. As a reaction mixture, 37.5 μL of 25 mM HEPES (pH 7.5), 10 mM magnesium acetate, 1 mM DTT, each concentration of purified protein and a synthesis substrate were used. The mixture was reacted in the presence or absence of a test compound (2.5 μL/the reaction mixture) dissolved in DMSO at each concentration at room temperature for 5 min. […] After quenching the reaction, the amount of phosphorylated peptide was measured by Top-Count (Packard).

In the next assay the target is MEK5 (Homo sapiens, UniProt Q13163). Conditions: read-out: 50% inhibitory activity against other kinases: MEK5. On the procedure: (§1) Inhibitory action on various purified proteins of serine, threonine kinases (p38α, JNK1, IKKβ, ASK1, TAK1, MEKK1, PKCθ, GSK-3β, PLK1, TTK, Aurora A, MEK1, MEK5, B-RAF, ERK1) was examined. As a reaction mixture, 37.5 μL of 25 mM HEPES (pH 7.5), 10 mM magnesium acetate, 1 mM DTT, each concentration of purified protein and a synthesis substrate were used. The mixture was reacted in the presence or absence of a test compound (2.5 μL/the reaction mixture) dissolved in DMSO at each concentration at room temperature for 5 min. Further, 10 μL of a mixture of 2.5 μM ATP and 10 μCi/ml [γ-^33P]ATP (DAIICHI PURE CHEMICALS) was added and the mixture was reacted at room temperature for 30 min. After quenching the reaction, the amount of phosphorylated peptide was measured by Top-Count (Packard). The concentration of the test compound necessary for 50% inhibition (IC50 value) was calculated by PRISM 3.0 (GraphPad Software).

The target in the next assay is PLK1 (Homo sapiens, UniProt P53350). Particulars: read-out: 50% inhibitory activity against other kinases: PLK1. On the procedure: as §1
A further assay has as its target JNK1 (Homo sapiens, UniProt P45983). Conditions: read-out: 50% inhibitory activity against other kinases: JNK1. On the procedure: as §1
For the next assay, the target named is TAK1 (Homo sapiens, UniProt O43318). Conditions: read-out: 50% inhibitory activity against other kinases: TAK1. On the procedure: as §1
For the next assay, the target named is T1, IKKβ (Homo sapiens, UniProt O14920).
T1 sequence (O14920 1-756): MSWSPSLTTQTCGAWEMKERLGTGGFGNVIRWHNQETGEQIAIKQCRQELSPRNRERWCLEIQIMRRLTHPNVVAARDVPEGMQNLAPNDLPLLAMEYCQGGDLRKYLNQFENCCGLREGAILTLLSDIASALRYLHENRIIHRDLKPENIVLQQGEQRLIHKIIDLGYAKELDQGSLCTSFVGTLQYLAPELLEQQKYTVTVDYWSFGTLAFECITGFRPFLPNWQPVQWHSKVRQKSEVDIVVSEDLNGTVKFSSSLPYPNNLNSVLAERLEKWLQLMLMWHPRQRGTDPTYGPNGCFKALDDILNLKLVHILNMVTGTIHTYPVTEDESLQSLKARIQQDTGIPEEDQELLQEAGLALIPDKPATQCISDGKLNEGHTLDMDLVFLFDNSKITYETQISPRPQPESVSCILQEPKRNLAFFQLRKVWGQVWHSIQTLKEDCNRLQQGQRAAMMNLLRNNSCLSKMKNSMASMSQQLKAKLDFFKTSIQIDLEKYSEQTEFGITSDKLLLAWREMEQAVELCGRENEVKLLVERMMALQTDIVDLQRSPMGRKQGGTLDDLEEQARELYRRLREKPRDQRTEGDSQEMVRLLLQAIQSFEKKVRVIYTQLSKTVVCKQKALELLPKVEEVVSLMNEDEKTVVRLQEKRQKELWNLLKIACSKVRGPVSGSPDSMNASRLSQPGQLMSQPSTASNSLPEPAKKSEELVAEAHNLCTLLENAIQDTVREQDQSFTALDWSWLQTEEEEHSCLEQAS
Particulars: read-out: 50% inhibitory activity against other kinases: IKKβ. Here is the method: as §1

The target in the next assay is Aurora A (Homo sapiens, UniProt O14965). Particulars: read-out: 50% inhibitory activity against other kinases: Aurora A. On the procedure:
as §1

A further assay deals with ASK1 (Homo sapiens, UniProt Q99683). Conditions: read-out: 50% inhibitory activity against other kinases: ASK1. Here is the method: as §1
Another assay addresses ERK1 (Homo sapiens, UniProt P27361). Conditions: read-out: 50% inhibitory activity against other kinases: ERK1. On the procedure: as §1
A further assay has as its target p38α (Homo sapiens, UniProt Q16539). Conditions: read-out: 50% inhibitory activity against other kinases: p38α. On the procedure:
as §1

The target of a further assay is MEKK1 (Homo sapiens, UniProt Q13233). Particulars: read-out: 50% inhibitory activity against other kinases: MEKK1. On the procedure:
as §1

In another assay the target is T2, TTK (Homo sapiens, UniProt P33981).
T2 sequence (P33981 1-857): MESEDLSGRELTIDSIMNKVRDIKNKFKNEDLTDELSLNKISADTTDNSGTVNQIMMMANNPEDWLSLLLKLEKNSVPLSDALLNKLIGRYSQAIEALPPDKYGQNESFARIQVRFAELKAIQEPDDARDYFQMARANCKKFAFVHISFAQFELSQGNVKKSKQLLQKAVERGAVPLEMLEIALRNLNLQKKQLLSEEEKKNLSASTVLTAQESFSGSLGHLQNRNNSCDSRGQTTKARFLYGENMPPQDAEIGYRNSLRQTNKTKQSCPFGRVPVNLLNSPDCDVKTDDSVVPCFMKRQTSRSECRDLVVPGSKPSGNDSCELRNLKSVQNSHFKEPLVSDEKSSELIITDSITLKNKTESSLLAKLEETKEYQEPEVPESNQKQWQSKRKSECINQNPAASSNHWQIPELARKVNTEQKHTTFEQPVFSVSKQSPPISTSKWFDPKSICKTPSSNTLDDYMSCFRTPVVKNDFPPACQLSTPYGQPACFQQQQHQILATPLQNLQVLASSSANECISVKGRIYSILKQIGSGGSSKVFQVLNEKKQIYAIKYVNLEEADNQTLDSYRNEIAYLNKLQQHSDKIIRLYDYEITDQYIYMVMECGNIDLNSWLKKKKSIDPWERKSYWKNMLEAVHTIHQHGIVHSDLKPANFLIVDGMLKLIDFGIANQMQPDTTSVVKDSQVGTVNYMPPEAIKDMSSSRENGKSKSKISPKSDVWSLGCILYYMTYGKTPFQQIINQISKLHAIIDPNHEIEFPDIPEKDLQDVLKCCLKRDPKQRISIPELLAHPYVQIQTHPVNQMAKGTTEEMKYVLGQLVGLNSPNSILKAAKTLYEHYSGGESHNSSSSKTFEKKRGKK
Particulars: read-out: 50% inhibitory activity against other kinases: TTK. Here is the method: as §1

The next assay concerns the target B-RAF (Homo sapiens, UniProt P15056). Particulars: read-out: 50% inhibitory activity against other kinases: B-RAF. Here is the method: as §1
For the next assay, the target named is PKCθ (Homo sapiens, UniProt Q04759). Particulars: read-out: 50% inhibitory activity against other kinases: PKCθ. Here is the method: as §1
Another assay addresses MEK1 (Homo sapiens, UniProt Q02750). Particulars: read-out: 50% inhibitory activity against other kinases: MEK1. On the procedure: as §1

Our source for the IC50 values is patent US8492378B2, “GSK-3β inhibitor” (Takeda Pharmaceutical Company Limited, priority 2006, dated 2013).

A value given as a limit tells only on which side of the number the result lay.

Chain of PKCθ (Q04759 whole entry): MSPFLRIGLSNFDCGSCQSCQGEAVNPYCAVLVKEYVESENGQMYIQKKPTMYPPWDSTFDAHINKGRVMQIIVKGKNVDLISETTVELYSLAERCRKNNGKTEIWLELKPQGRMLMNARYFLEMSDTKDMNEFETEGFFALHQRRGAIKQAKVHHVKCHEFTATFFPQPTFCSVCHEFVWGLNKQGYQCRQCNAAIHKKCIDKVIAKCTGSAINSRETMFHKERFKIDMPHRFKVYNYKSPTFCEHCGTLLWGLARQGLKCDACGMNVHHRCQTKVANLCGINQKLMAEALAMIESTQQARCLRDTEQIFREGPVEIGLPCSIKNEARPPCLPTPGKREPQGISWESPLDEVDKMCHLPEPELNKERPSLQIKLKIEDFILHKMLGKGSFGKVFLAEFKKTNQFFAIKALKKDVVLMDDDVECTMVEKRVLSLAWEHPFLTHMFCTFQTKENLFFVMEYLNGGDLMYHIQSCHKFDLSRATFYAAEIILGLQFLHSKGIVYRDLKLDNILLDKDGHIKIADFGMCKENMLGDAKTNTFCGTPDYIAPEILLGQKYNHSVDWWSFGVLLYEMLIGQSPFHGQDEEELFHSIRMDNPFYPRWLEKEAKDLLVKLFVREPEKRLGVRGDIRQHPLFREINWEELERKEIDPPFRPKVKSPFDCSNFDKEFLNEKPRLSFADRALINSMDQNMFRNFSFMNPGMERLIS
Chain of MEK5 (Q13163 whole entry): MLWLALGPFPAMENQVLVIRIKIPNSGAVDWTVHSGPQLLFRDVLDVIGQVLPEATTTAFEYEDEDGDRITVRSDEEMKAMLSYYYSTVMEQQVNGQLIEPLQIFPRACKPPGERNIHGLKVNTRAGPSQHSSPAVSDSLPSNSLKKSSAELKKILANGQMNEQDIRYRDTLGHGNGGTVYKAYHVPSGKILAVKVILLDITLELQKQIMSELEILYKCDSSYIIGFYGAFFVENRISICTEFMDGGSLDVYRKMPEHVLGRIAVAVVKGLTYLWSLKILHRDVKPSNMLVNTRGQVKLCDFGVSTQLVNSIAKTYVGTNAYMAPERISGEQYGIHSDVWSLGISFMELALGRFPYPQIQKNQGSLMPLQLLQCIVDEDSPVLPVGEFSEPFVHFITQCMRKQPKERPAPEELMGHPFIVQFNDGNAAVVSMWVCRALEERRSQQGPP
Chain of B-RAF (P15056 whole entry): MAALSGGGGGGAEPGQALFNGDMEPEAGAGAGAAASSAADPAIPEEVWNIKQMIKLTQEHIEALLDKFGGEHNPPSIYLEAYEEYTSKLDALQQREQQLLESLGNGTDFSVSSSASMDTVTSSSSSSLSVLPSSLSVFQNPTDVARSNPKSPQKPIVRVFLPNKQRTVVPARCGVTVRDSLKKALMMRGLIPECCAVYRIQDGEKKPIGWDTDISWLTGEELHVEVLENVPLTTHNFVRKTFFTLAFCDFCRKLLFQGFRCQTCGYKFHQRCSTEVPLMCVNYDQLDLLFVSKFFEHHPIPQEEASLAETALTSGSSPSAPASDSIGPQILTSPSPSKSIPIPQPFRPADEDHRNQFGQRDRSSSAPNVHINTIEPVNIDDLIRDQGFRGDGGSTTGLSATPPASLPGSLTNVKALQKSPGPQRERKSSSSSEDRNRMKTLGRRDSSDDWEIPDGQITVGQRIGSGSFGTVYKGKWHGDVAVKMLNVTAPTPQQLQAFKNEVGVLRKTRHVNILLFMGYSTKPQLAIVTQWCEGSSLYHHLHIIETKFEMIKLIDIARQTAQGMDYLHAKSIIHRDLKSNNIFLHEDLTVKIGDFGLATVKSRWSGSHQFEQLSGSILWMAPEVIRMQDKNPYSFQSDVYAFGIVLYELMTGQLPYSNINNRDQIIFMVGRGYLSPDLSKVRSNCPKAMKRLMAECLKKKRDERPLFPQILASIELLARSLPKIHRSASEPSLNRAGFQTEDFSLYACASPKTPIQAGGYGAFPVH
Chain of ERK1 (P27361 whole entry): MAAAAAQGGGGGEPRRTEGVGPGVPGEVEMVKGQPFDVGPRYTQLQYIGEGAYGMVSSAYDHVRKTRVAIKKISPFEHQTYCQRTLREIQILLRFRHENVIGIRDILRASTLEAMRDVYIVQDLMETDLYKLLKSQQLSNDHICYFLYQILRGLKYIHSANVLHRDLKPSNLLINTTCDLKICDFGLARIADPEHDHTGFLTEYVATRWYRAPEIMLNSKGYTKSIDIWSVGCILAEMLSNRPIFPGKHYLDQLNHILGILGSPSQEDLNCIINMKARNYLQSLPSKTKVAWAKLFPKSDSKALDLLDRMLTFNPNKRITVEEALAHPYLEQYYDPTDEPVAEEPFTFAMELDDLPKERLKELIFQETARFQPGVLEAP
Chain of MEKK1 (Q13233 whole entry, species assumed): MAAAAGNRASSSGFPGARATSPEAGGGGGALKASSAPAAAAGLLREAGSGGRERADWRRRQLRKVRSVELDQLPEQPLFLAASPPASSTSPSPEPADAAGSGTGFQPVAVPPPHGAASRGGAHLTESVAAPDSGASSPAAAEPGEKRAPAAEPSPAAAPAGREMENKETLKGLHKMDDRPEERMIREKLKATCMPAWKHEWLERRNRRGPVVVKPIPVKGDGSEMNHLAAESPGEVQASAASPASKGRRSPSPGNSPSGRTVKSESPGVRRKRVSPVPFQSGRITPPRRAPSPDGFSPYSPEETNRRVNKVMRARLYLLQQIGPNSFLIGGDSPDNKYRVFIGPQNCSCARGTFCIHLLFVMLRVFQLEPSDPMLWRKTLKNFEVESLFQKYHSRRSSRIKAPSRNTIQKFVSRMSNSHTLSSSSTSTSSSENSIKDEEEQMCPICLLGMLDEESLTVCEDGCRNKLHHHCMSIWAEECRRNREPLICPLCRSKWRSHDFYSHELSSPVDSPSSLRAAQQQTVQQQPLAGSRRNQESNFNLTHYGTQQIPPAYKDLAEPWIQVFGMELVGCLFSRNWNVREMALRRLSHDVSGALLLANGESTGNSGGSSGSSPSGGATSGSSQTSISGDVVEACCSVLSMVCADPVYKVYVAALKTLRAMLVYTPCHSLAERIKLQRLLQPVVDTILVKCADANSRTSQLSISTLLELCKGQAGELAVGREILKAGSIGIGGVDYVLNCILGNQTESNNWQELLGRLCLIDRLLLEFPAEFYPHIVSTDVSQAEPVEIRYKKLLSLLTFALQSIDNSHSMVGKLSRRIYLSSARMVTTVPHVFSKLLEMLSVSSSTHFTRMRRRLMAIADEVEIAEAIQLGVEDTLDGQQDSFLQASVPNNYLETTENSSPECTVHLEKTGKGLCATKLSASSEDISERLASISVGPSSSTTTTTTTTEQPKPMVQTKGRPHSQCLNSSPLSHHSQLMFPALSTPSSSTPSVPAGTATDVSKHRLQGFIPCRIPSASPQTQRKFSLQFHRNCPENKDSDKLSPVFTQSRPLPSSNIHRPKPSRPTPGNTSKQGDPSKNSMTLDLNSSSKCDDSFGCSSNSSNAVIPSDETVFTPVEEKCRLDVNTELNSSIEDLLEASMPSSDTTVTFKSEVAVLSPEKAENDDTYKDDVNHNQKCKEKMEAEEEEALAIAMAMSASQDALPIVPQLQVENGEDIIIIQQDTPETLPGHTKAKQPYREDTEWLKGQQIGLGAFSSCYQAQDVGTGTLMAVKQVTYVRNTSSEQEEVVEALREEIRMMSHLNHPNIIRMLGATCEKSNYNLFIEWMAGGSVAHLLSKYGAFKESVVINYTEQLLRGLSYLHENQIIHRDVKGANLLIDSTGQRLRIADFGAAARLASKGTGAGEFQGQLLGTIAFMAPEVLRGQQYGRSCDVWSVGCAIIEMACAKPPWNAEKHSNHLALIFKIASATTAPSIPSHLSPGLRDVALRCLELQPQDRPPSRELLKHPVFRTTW
Chain of MEK1 (Q02750 whole entry): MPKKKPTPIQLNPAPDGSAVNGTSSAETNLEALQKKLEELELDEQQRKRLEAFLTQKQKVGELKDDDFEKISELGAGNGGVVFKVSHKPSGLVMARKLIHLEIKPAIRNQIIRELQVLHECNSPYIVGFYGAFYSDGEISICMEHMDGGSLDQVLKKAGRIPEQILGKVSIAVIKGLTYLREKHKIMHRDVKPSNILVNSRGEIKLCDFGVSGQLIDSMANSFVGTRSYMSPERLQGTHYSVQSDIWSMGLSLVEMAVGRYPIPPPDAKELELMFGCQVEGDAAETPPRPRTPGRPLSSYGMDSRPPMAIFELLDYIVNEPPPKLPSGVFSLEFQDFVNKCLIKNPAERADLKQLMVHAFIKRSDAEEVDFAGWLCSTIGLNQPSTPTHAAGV
Chain of PLK1 (P53350 whole entry): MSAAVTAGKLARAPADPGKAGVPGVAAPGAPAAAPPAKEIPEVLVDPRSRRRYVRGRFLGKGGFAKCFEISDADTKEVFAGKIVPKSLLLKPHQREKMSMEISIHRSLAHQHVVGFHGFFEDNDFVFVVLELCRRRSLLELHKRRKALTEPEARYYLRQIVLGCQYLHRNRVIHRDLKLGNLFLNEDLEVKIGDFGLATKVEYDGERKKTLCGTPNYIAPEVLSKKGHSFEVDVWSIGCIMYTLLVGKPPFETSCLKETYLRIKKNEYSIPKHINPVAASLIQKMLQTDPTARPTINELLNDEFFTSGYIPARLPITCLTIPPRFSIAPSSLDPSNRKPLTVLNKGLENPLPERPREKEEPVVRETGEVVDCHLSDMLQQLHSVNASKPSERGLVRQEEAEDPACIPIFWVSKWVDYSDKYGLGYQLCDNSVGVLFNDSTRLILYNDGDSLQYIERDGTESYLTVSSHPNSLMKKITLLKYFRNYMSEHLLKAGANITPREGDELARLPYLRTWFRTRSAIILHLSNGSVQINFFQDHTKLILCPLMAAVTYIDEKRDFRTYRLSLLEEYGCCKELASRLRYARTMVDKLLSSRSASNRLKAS

With `COc1ccc(-c2coc3ccc(-c4nnc(SC)o4)cc23)cc1` [Example 165, 2-[3-(4-methoxyphenyl)-1-benzofuran-5-yl]-5-(methylthio)-1,3,4-oxadiazole], the IC50 is 0.19 µM at GSK-3β; greater than 10 µM at MEK5; greater than 10 µM at PLK1; greater than 10 µM at JNK1; greater than 10 µM on TAK1; greater than 10 µM at IKKβ. Further, the IC50 at Aurora A, at ASK1, at ERK1, on p38α, on MEKK1 and on TTK was greater than 10 µM throughout. Besides, the IC50 on B-RAF, on PKCθ and on MEK1 was greater than 10 µM in each case.
As for `COc1ccc(CSc2nnc(-c3ccc4c(c3)OCO4)o2)cc1F` [Reference Example 71, 2-(1,3-benzodioxol-5-yl)-5-[(3-fluoro-4-methoxybenzyl)thio]-1,3,4-oxadiazole, reference compound], the IC50 on MEK5, on PLK1, on JNK1, at TAK1, on IKKβ and at Aurora A was greater than 10 µM in each case. Further, the IC50 on ASK1, at ERK1, at p38α, on MEKK1, at TTK and at B-RAF was greater than 10 µM in each case. For the same compound, the IC50 at PKCθ and at MEK1 was greater than 10 µM in each case.
Take `COc1ccc(CSc2nnc(-c3ccnc(N)c3)o2)cc1F` [Example 209, 4-[5-[(3-fluoro-4-methoxybenzyl)thio]-1,3,4-oxadiazol-2-yl]pyridin-2-amine]: the IC50 at GSK-3β was 0.14 µM; on MEK5 it was greater than 10 µM; at PLK1, greater than 10 µM; on JNK1, greater than 10 µM; at TAK1, greater than 10 µM; at IKKβ it was greater than 10 µM. Moreover, the IC50 on Aurora A, at ASK1, at ERK1, at p38α, on MEKK1 and at TTK was greater than 10 µM throughout. Further, the IC50 at B-RAF, on PKCθ and at MEK1 was greater than 10 µM in each case.
